Test results published in patent US20180237745A1, “METHOD FOR CONTROLLING DIFFERENTIATION OF STEM CELLS” (GUANGZHOU INSTITUTES OF BIOMEDICINE AND HEALTH, CHINESE …, priority 2015, published 2018).

Assays:
human H1 ES cells [1] = tested on: human H1 ES cells
Method: Undifferentiated human H1 ES cells were maintained in monolayer culture on Matrigel (BD Biosciences, 354277) in mTeSR1 medium (Stemcell Technologies, 05850) at 37° C. with 5% CO2. Cells were manually passaged at 1:4 to 1:6 split ratios every 3 to 5 days. For hepatic differentiation, we established a serum-free protocol based on previously described protocols with minor modifications^8, 9. Briefly, H1 cells were cultured for 3 days in RPMI/B27 medium (Insulin minus, Gibco, A18956-01) supplemented with 100 ng/ml Activin A (Peprotech, A120-14E), followed by 4 days with 20 ng/ml BMP2 (Peprotech, 120-02) and 30 ng/ml FGF-4 (Peprotech, 100-31) in RPMI/B27 (complete with Insulin, Gibco, 17504-044) medium, then 6 days with 20 ng/ml HGF (Peprotech, 100-39) and KGF (Peprotech, 100-19) in RPMI/B27 (complete with Insulin), then 8 days with 20 ng/ml Oncostatin-M (R&D Systems, 295-OM/CF) in Hepatocyte Culture Media (Lonza, cc-3198) supplemented with SingleQuots (without EGF). Immunofluorescence staining.
Single cell qPCR was performed using a Fluidigm C1 and BioMark HD as described by the manufacturer. Briefly, a cell suspension of a concentration of 166˜250 K/mL was loaded into a 10-17 μm C1™ Single-Cell Auto Prep IFC chamber (Fluidigm, PN100-5479), and cell capture was performed on the Fluidigm C1™ System. Both the empty wells and doublet-occupied wells were excluded from further analysis. Upon capture, reverse transcription and cDNA pre-amplification were performed using the Ambion Single Cell-to-CT Kit (Life Technologies, PN 4458237) and C1™ Single-Cell Auto Prep Module 2 Kit (Fluidigm, PN100-5519). The pre-amplified products were diluted 10-fold prior to analysis with TaqMan® Gene Expression Master Mix (Life Technologies, 4369016) and inventoried TaqMan® Gene Expression assays (20×, Applied Biosystems) in 96.96 dynamic Arrays™ on a BioMark System (Fluidigm). Inventoried TaqMan primers were used for single-cell qPCR. Relative expression was calculated as described in Buganim et al., 2012^22 except that a Ct value of 25 was used for low expressed genes. Relational network plots (mdsquish) were implemented as part of glbase^21 and will be described in detail elsewhere. Briefly, the normalized Euclidean distance between all cells was measured for singular value decomposed principal components 2, 3, 4 and 5. A network was then constructed using a threshold of 0.92 for weak links (dotted lines) and 0.99 for strong links (solid lines) with a maximum of the 50 best scoring edges per node, the network was then laid out using graphviz ‘neato’ layout. Node sizes are 2^[relative expression].
Culturing condition during differentiation is as follows. Nearly 50% confluent undifferentiated human H1 ES cells obtained from ATCC were passaged by Accutase 24 hr after seeding, cells were almost 90% confluent at 37° C. with 5% CO2. Then H1 cells were cultured for 3 days in RPMI/B27 medium (Insulin minus) supplemented with 100 ng/ml Activin A in the presence of 2 μM Repsox or not.
TGFβ-signaling inhibitor RepSox was added with a final concentration of 2 μM at day 0 from the start of differentiation of hESCs.
Expression of various markers of definite layer type cells, i.e., SOX1/PAX6 (ectoderm markers), GATA2/BMP4 (mesoderm markers), and SOX17/FOXA2 (endoderm markers) were tested during differentiation to evaluate the differentiated cells.

human H1 ES cells [2] = experiment: Bulk real-time qRT-PCR of marker genes in Activin A induced hESCs; assay type: cell-based
Method: Immunofluorescence staining.
Total RNA was extracted using the Trizol reagent (MRC, TR1187) and 2 μg of total RNA was reverse-transcribed using the ReverTraAce Kit (TOYOBO, 34520B1). The product (cDNA) was properly diluted and used as PCR template. PCR reactions were performed with the SYBR®Premix Ex Taq™ Kit (TAKARA, RR420A) on the CFX96 Touch™ Real-Time PCR Detection System (Bio-Rad). GAPDH was used as the internal control. Three to four biological replicates were performed for each assay and data represents mean±SD.
Culturing condition during differentiation is as follows.

H1-derived cells = conditions: day 3 cells induced by Activin A in the presence of RepSox, compared to DE cells
Excerpt: Scratch assay was used to determine the migration activity of H1-derived cells. Briefly, cells in a confluent monolayer were scratched with a needle to form a cell-free zone into which cells at the edges of the wound can migrate. The denuded area was imaged to measure the boundary of the wound at pre-migration. Images of cell movement were captured at regular intervals within a 24-48 hr period for data analysis.

TGFβ = experiment: ELISA of TGFβ protein in Activin A stimulated H1 cell culture media; assay type: cell-based, human; conditions: day 3 cells, Activin A (FIG. 4A)
Method: The protein level of TGFβ in the Activin A stimulated H1 cell culture media was determined with an ELISA Kit (R&D Systems, DB100B) as described by the manufacturer.

Molecule: Cc1cccc(-c2[nH]ncc2-c2ccc3ncccc3n2)n1 [RepSox]
- endoderm marker expression (human H1 ES cells [1]; Example 1: 100 ng/ml Activin A, 2 μM RepSox, 3 days (FIG. 4B-E)): no endoderm marker is expressed
- ectodermal markers SOX1 and PAX6 (human H1 ES cells [1]; RepSox treated cells, day 3 (FIG. 4C)): slightly induced
- EMT and formation of DE (human H1 ES cells [1]; day 3, Activin A treated hESCs, RepSox added, single cell-qPCR (FIG. 4C)): not only blocked the EMT but also the formation of DE
- expression of POU5F1 and NANOG (human H1 ES cells [1]; day 3 Activin A cells treated with RepSox (FIG. 4C)): continued to express POU5F1 and NANOG
- expression of CDH1 and SOX2 (human H1 ES cells [1]; day 3 Activin A cells treated with RepSox, compared with hESCs (FIG. 4C)): maintained the expression of CDH1 and SOX2 at the same level as hESCs
- induction of SOX17 expression (human H1 ES cells [1]; day 3 Activin A-treated cells (FIG. 4C)): blocked its induction completely
- expression of CDH1 (human H1 ES cells [2]; qRT-PCR (FIG. 4D)): maintaining the expression of CDH1
- expression of CDH2, SNAI1, SNAI2, ZEB1, KLF8 and VIM (human H1 ES cells [2]; qRT-PCR (FIG. 4D)): blocked the expression
- expression of mesendoderm/endoderm markers GSC, EOMES, MIXL1, SOX17, FOXA2, GATA4, GATA6, HHEX and LGR5 (human H1 ES cells [2]; qRT-PCR (FIG. 4D)): blocked the expression of mesendoderm/endoderm markers
- other lineage markers PAX6, GATA2, BMP4 and GATA3 (human H1 ES cells [2]; qRT-PCR (FIG. 4D)): mildly up-regulated
- migration ability of day 3 cells (H1-derived cells): less motile

B1: Activin A (protein, UniProt P08476 311-426, looked up)
Inhibin beta A chain: GLECDGKVNICCKKQFFVSFKDIGWNDWIIAPSGYHANYCEGECPSHIAGTSGSSLSFHSTVINHYRMRGHSPFANLKSCCVPTKLRPMSMLYYDDGQNIIKKDIQNMIVEECGCS
modifications: Inhibin beta A chain
notes: growth factor (Peprotech) used to induce definitive endoderm differentiation of hESCs
- TGFB1 gene expression (human H1 ES cells [2]; qRT-PCR, day 3 (FIG. 6)): robust activation
- TGFβ protein in the culture media (TGFβ): 1.5 ng/mL
